PMC2668073, “N- and C-Terminal Domains of the Calcium Binding Protein EhCaBP1 of the Parasite Entamoeba histolytica Display Distinct Functions” (PLoS ONE, 2009)

Target: T1, EhCaBP1 (Entamoeba histolytica, UniProt P38505)
T1 construct: gene CaBP1; trimer, Phe site between EF1 and EF2 of neighbouring molecules; C-terminal half without density; strain printed for amoeba culture only
Experiment: X-ray crystal structure of the complex (co-crystallisation)
Assay type: binding
Details: 2 mM phenylalanine, 10 mM CaCl2 in protein solution; crystals from 63-65% MPD, 5 mM CaCl2, 50 mM acetate pH 4, 16 °C; hydrophobic pocket between EF1 and EF2 of adjacent molecules

T1 sequence (P38505 whole entry): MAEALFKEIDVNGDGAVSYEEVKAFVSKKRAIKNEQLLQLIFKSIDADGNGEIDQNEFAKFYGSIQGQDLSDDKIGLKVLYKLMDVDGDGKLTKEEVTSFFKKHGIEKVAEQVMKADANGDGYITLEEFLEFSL

## N[C@@H](Cc1ccccc1)C(=O)O [Phenylalanine]
  X-ray crystal structure of the complex (co-crystallisation): hydrophobic pocket formed at the interface between EF1 and EF2 in the assembled domain
